# Source: patent US20130045991A1, “NEUROPROTECTIVE MODULATION OF NMDA RECEPTOR SUBTYPE ACTIVITIES” (THE UNIVERSITY OF BRITISH COLUMBIA, priority 2005, published 2013)
# Assays:
# cortical neurons [1] = assay: NMDA-mediated excitotoxicity: neuronal apoptosis in cortical cultures; format: cell-based, rat; conditions: 50 μM NMDA plus 10 μM glycine 20 min, assayed 20 h after; APV 50 μM, Ro25-6981 0.5 μM, NVP-AAM077 0.4 μM
# Protocol: (§1) Mature neurons (11-14 DIV) were used for experiments.
# (§2) To visualize injured neurons, Hoechst-33342 (10 μg/ml) was added to the culture medium 20 h after treatments and incubated for 45 min at 37 °C. Images were taken with a Leica DMIRE2 fluorescence microscope. Quantitative assessment of neuronal apoptosis was performed 20 h following treatments using a Cell Death Detection […] Kit (Roche Applied Science). Absorbance readings were determined using a spectrophotometric microplate reader. Data analyses were carried out according to the manufacturer's instructions. Data are expressed as the difference in apoptosis relative to control and are expressed as a percentage.
# synaptic NMDA receptors = assay: mEPSC recording, NMDA receptor-mediated component; format: cell-based, rat
# [2] = system: AMPA subtype glutamate receptor; assay: mEPSC recording, fast AMPA receptor-mediated component; format: cell-based, rat; conditions: -60 mV, zero added Mg2+
# [3] = system: middle cerebral artery occlusion (MCAo); assay: MCAo focal ischemic stroke model, post-ischemic treatment; format: in vivo, rat
# Description: In some clinical settings, it is desirable to implement therapy after the onset of neuronal injury, such as stroke or other ischemic events.
# Transient cerebral focal ischemia was produced by middle cerebral artery occlusion (MCAo) as described (Aarts et al., 2002; Bederson et al., 1986; Longa et al., 1989). Briefly, male Sprague-Dawley rats (Charles River Laboratories) weighing ˜300 g were anesthetized and MCAo was achieved by introducing a 3-0 monofilament suture into the MCA via the internal carotid artery. Body temperature was maintained at 37.0±0.5° C., and blood pressure and blood gases were monitored during the experiments. Animals were sacrificed 24 h following MCAo onset. Cerebral infarction was analyzed using brain sections stained with hematoxylin and eosin (H & E) or 2,3,5-triphenyltetrazolium chloride (TTC). 10 min before the animals were sacrificed, two tests, the postural reflex test to examine upper body posture (Bederson et al., 1986) and the forelimb placing test to examine sensorimotor integration in forelimb placing responses to visual, tactile, and proprioceptive stimuli (De Ryck et al., 1989), were performed to grade neurological function on a scale of 0 to 12 (0=normal, 12=worst). In the pretreatment study, a single bolus of drugs (NR2A-specific antagonist NVP-AAM077 (2.4 mg/kg) or NR2B specific antagonist Ro 25-6981 (6 mg/kg) or vehicle (saline)) was infused intravenously 30 min before a 1-h MCAo. For post-treatment experiments, animals were subjected to a 1.5-h MCAo and drug treatments (glycine, 800 mg/kg; NVP-AAM077 and Ro 25-6981 at the same doses as in the pretreatment study) were then given via intraperitoneal injection (i.p.) 3 h after reperfusion (4.5 h after the onset of MCAo).
# The activating effect on NR2A-containing receptors was mimicked with the application of the NMDA receptor co-agonist glycine in the presence of an […] NR2B antagonist. Glycine by itself potentiates the function of NMDA receptors that are activated by endogenously released glutamate from presynaptic terminals both in vitro and in vivo (Johnson et al., 1987; Lu et al., 2001; De et al., 2000).
# cortical neurons [4] = assay: Staurosporine (STS)-induced neuronal apoptosis; format: cell-based, rat; conditions: NMDA 200 μM, 5 min, Ro 25-6981 0.5 μM present
# Description: In alternative aspects of the invention, we have achieved specific activation of NR2A-containing receptors using two different strategies. First, we examined the effect of selective activation of extrasynaptic NR2A-containing receptor activation on neuronal appopotosis induced by staurosporine (STS), a potent apoptosis inducer (Budd et al., 2000). […] The NMDA-induced neuronal protection was indeed mediated by NR2A-containing receptors as it was prevented by co-application of NVP-AAM077 (p<0.001 compared with STS alone).
# Dissociated cultures of cortical neurons were prepared from 18-day Sprague-Dawley rat embryos as described previously (Mielke et al., 2005). To obtain mixed cortical cultures enriched with neurons, uridine (10 μM) and 5-Fluor-2′-deoxyuridine (10 μM) were added to the culture medium at 3 DIV and maintained for 48 h, to inhibit non-neuronal cell proliferation, before the cultures were shifted back to the normal culture medium. Mature neurons (11-14 DIV) were used for experiments. To induce neuronal apoptosis, cortical cultures were stimulated with NMDA (50 μM) and glycine (10 μM) for 20 min, or STS (100 nM) for 1 h in Mg2+-free extracellular solution (ECS) containing (mM): 25 HEPES acid, 140 NaCl, 33 glucose, 5.4 KCl and 1.3 CaCl2, with pH 7.35 and osmolarity 320-330 mOsm. […]
# To visualize injured neurons, Hoechst-33342 (10 μg/ml) was added to the culture medium 20 h after treatments and incubated for 45 min at 37 °C. Images were taken with a Leica DMIRE2 fluorescence microscope. Quantitative assessment of neuronal apoptosis was performed 20 h following treatments using a Cell Death Detection ELISAPLUS Kit (Roche Applied Science). Absorbance readings were determined using a spectrophotometric microplate reader. […] Data are expressed as the difference in apoptosis relative to control and are expressed as a percentage.
# [5] = system: NR1C and NR2B receptors over NR1C+NR2A receptors; conditions: cited from earlier work
# permanent focal ischemia = conditions: in vivo; cited from earlier work
# [6] = system: acute ischaemic stroke in the carotid artery territory; conditions: sublingual 1.0-2.0 g/day started within 6 h after onset; cited from earlier work
# cortical neurons [7] = assay: Glycine pretreatment before NMDA-induced neuronal apoptosis; format: cell-based, rat
# Protocol: as §1, §2
smiles,measurement,setting,value
N[C@@H](CCCP(=O)(O)O)C(=O)O [APV],effect on NMDA-induced neuronal apoptosis/damage,cortical neurons [1],fully blocked
same,effect on slow NMDA receptor-mediated component of mEPSCs,"synaptic NMDA receptors; -60 mV, zero added Mg2+, APV 50 μM, Ro 25-6981 0.5 μM",fully blocked
"O=C1N=c2cc([N+](=O)[O-])c([N+](=O)[O-])cc2=NC1=O [DNQX, 6,7-dinitroquinoxaline-2,3-dione]",effect on fast AMPA receptor-mediated component of mEPSCs,[2],completely blocked
C[C@]12N[C@H](Cc3ccccc31)c1ccccc12 [MK-801],effect of co-administration on the glycine effect (infarct volume reduction),[3]; co-administered with glycine 800 mg/kg 4.5 h after stroke onset,virtually completely abolished
same,neuroprotection / total infarct volume compared with MCAo alone,"[3]; given 3 h after 1.5-h MCAo (4.5 h after stroke onset), MK801 1 mg/Kg, glycine 800 mg/Kg, Ro 25-6981 6 mg/Kg",did not provide any noticeable neuroprotection
same,blockade of synaptic NMDA receptors (APV-sensitive component of mEPSCs),"synaptic NMDA receptors; MK-801 10 μM co-applied with bicuculline 50 μM, within 10 min",complete blockade
"CN[C@H](CC(=O)O)C(=O)O [NMDA, N-methyl-D-aspartate]",effect on STS-induced apoptosis,"cortical neurons [4]; STS 100 nM, 1 h",significantly reduced STS-induced apoptosis
same,neuronal apoptosis on its own,cortical neurons [4]; synaptic receptors blocked (MK-801 + bicuculline),did not increase neuronal apoptosis on its own
"Cc1ccc(CC2(O)CCN(CCOc3ccc(O)cc3)CC2)cc1 [Ro 63-1908, 1-[2-(4-hydroxy-phenoxy)-ethyl]-4-(4-methyl-benzyl)-piperidin-4-ol]",selectivity for the NR1C and NR2B receptors over NR1C+NR2A receptors,[5],"20,000 fold"
same,neuroprotective effect against cortical damage,permanent focal ischemia,dose-related neuroprotective effect
"NCC(=O)O [glycine, Glycine]",clinical effects,[6],favourable clinical effects
same,neuroprotection / total infarct volume compared with MCAo alone,"[3]; rat, in vivo",remarkable reduction in total infarct volume
same,effect of pretreatment on NMDA-induced neuronal apoptosis,cortical neurons [7],significantly reduced NMDA-induced neuronal apoptosis
